From patent US20230265151A1, “GIP/GLP1 CO-AGONIST COMPOUNDS” (priority 2020, published 2023)
Read-outs that look alike come from different tables or passages of the source.

Tests used:
Assay type in all cases: cell-based
hGIPR = molecular target: T1, hGIPR (Homo sapiens, UniProt P48546); test: Functional cAMP formation (HTRF) in HEK-293 clonal cells expressing hGIPR, 0.1% bovine casein, without or with 1.0% human serum albumin; conditions: for EC50: geometric mean, read-out: hGIPR EC50, nM (SEM, n); for Emax: read-out: hGIPR Emax, % ± SEM
T1 construct: expressed in transfected cells
T1 sequence (P48546 22-466): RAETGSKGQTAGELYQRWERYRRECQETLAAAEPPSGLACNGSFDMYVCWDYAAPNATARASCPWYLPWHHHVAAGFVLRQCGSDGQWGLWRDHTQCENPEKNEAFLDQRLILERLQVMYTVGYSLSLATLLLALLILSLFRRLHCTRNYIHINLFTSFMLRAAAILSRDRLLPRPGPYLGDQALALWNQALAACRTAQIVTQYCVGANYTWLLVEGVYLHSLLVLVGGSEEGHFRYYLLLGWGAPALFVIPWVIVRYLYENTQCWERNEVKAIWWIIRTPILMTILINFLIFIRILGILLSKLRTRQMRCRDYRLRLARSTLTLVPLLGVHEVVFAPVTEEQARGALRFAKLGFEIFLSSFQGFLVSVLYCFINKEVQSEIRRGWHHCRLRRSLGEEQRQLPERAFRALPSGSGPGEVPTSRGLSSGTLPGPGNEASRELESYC
In short: (§1)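 Cells were stimulated with peptide for 30 min at 37° C, then lysed in buffer carrying cAMP-d2 and anti-cAMP Eu3+-cryptate for a competitive HTRF read after at least 60 min at room temperature. The 665/620 nm ratio was converted to nM cAMP against a standard curve.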

hGLP-1R = hGLP-1R (Homo sapiens, UniProt P43220); test: Functional cAMP formation (HTRF) in HEK-293 clonal cells expressing hGLP-1R, 0.1% bovine casein, without or with 1.0% human serum albumin; set-up: expressed in transfected cells; conditions: for EC50: geometric mean, read-out: hGLP-1R EC50, nM (SEM, n); for Emax: read-out: hGLP-1R Emax, % ± SEM
Sequence of hGLP-1R (P43220 24-463): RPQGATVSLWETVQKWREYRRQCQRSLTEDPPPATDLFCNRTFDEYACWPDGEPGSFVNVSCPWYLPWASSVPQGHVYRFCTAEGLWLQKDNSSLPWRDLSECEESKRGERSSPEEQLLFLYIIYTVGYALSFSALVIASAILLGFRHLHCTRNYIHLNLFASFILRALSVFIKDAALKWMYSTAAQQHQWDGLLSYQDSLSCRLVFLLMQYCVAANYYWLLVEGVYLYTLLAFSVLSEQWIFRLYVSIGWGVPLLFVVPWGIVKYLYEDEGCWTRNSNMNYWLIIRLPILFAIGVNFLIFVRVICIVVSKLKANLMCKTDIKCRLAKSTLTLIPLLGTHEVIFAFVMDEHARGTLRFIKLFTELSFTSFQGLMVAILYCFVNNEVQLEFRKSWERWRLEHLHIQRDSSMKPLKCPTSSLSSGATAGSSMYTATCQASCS
In short: as §1

hGCGR = molecular target: T2, hGCGR (Homo sapiens, UniProt P47871); test: Functional cAMP formation (HTRF) in HEK-293 clonal cells expressing hGCGR, 0.1% bovine casein, without or with 1.0% human serum albumin; conditions: read-out: hGCGR EC50, nM (SEM, n)
T2 construct: expressed in transfected cells
T2 sequence (P47871 26-477): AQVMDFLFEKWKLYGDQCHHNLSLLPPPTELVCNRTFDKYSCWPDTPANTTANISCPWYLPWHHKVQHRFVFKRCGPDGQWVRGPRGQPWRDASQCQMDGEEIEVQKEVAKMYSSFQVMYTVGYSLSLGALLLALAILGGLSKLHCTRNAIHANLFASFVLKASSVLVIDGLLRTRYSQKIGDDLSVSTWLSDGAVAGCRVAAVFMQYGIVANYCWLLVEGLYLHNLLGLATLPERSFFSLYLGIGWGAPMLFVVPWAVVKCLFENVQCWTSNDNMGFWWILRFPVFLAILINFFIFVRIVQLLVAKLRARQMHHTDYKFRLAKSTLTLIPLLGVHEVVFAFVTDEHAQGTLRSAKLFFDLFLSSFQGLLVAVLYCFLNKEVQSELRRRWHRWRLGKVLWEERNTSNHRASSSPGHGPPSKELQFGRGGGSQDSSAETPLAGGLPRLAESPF
In short: as §1

[1] = 0.1% bovine casein and 1.0% human serum albumin, 37° C.
[2] = HEK293, 0.1% bovine casein and 1.0% human serum albumin, 37° C., percent of maximal response to GIP(1-42)NH2
[3] = cAMP, incubated at 37° C., 0.1% bovine casein (no human serum albumin)
[4] = HEK293, 0.1% bovine casein and 1.0% human serum albumin, 37° C., percent of maximal response to GLP-1(7-36)NH2
[5] = 0.1% bovine casein and 1.0% human serum albumin, 37° C., geometric mean
[6] = cAMP, incubated at 37° C., 0.1% bovine casein (no human serum albumin), geometric mean
[7] = cAMP, 37° C., 0.1% bovine casein (no human serum albumin)
[8] = cAMP, 37° C., 0.1% bovine casein (no human serum albumin), geometric mean

| SMILES | EC50 (hGIPR; [1]) | Emax (hGIPR; [2]) | Emax (hGIPR; HEK293, percent of maximal response to GIP(1-42)NH2, 37° C., 0.1% bovine casein, arithmetic mean) | EC50 (hGIPR; [3]) | EC50 (hGLP-1R; [1]) | Emax (hGLP-1R; [4]) | EC50 (hGLP-1R; [3]) | EC50 (hGCGR; [5]) | EC50 (hGCGR; [6]) | Emax (hGLP-1R; HEK293, percent of maximal response to GLP-1(7-36)NH2, 37° C., 0.1% bovine casein, arithmetic mean) | Emax (hGIPR; HEK293, cAMP, 37° C., 0.1% bovine casein and 1.0% human serum albumin, percent of maximal response to GIP(1-42)NH2) | EC50 (hGIPR; [7]) | Emax (hGLP-1R; HEK293, cAMP, 37° C., 0.1% bovine casein and 1.0% human serum albumin, percent of maximal response to GLP-1(7-36)NH2) | Emax (hGLP-1R; HEK293, cAMP, 37° C., 0.1% bovine casein, percent of maximal response to GLP-1(7-36)NH2, arithmetic mean) | EC50 (hGLP-1R; [7]) | EC50 (hGCGR; [8]) | EC50 (hGCGR; cAMP, 37° C., 0.1% bovine casein and 1.0% human serum albumin, geometric mean (SEM, n)) |
| --- | --- | --- | --- | --- | --- | --- | --- | --- | --- | --- | --- | --- | --- | --- | --- | --- | --- |
| CC[C@H](C)[C@H](NC(=O)[C@H](CC(C)C)NC(=O)[C@](C)(Cc1ccc(O)cc1)NC(=O)[C@@H](CCC(=O)O)NC(=O)[C@@H](NC(=O)[C@H](Cc1ccccc1)NC(=O)[C@H](CCCCNC(=O)COCCOCCNC(=O)COCCOCCNC(=O)CC[C@H](NC(=O)CCCc1ccc(C(C)(C)C)cc1)C(=O)O)NC(=O)C(C)(C)NC(=O)[C@H](CCC(N)=O)NC(=O)[C@H](C)NC(=O)[C@H](CCCCNC(=O)COCCOCCNC(=O)COCCOCCNC(=O)CC[C@H](NC(=O)CCCc1ccc(C(C)(C)C)cc1)C(=O)O)NC(=O)[C@H](CCCN)NC(=O)[C@H](CC(=O)O)NC(=O)[C@H](CC(C)C)NC(=O)[C@](C)(CC(C)C)NC(=O)[C@@H](NC(=O)[C@H](CO)NC(=O)[C@H](Cc1ccncc1)NC(=O)[C@H](CC(=O)O)NC(=O)[C@H](CO)NC(=O)[C@@H](NC(=O)[C@](C)(Cc1ccccc1F)NC(=O)[C@@H](NC(=O)CNC(=O)[C@H](CCC(=O)O)NC(=O)C(C)(C)NC(=O)[C@@H](N)Cc1ccc(O)cc1)[C@@H](C)O)[C@@H](C)O)[C@@H](C)CC)[C@@H](C)CC)C(=O)N[C@@H](CCC(=O)O)C(=O)NCC(=O)NCC(=O)N1CCC[C@H]1C(=O)N[C@@H](CO)C(=O)N[C@@H](CO)C(=O)NCC(=O)N[C@@H](C)C(=O)N1CCC[C@H]1C(=O)N1CCC[C@H]1C(=O)N1CCC[C@H]1C(=O)N[C@@H](CO)C(N)=O [Example 131] | 0.0581 nM | 90.4 ± 1.62% | 96.4 ± 1.95% | 0.0156 nM | 1.04 nM | 112 ± 1.76% | 0.19 nM | > 9950 nM | > 9950 nM |  |  |  |  |  |  |  |  |
| CC[C@H](C)[C@H](NC(=O)[C@H](CC(C)C)NC(=O)[C@](C)(Cc1ccc(O)cc1)NC(=O)[C@@H](CCC(=O)O)NC(=O)[C@@H](NC(=O)[C@H](Cc1csc2ccccc12)NC(=O)[C@H](CCC(=O)O)NC(=O)C(C)(C)NC(=O)[C@H](CCC(N)=O)NC(=O)[C@H](C)NC(=O)[C@H](CCCCNC(=O)COCCOCCNC(=O)COCCOCCNC(=O)CC[C@H](NC(=O)CCCCCCCCCCCCC(=O)O)C(=O)O)NC(=O)[C@H](CCCN)NC(=O)[C@H](CC(=O)O)NC(=O)[C@H](CC(C)C)NC(=O)[C@](C)(CC(C)C)NC(=O)[C@@H](NC(=O)[C@H](CO)NC(=O)[C@H](Cc1ccncc1)NC(=O)[C@H](CC(=O)O)NC(=O)[C@H](CO)NC(=O)[C@@H](NC(=O)[C@](C)(Cc1ccccc1F)NC(=O)[C@@H](NC(=O)CNC(=O)[C@H](CCC(=O)O)NC(=O)C(C)(C)NC(=O)[C@@H](N)Cc1ccc(O)cc1)[C@@H](C)O)[C@@H](C)O)[C@@H](C)CC)[C@@H](C)CC)C(=O)N[C@@H](CCC(=O)O)C(=O)NCC(=O)NCC(=O)N[C@@H](CCCCNC(=O)COCCOCCNC(=O)COCCOCCNC(=O)CC[C@H](NC(=O)CCCCCCCCCCCCC(=O)O)C(=O)O)C(=O)N[C@@H](CO)C(=O)N[C@@H](CO)C(=O)NCC(=O)N[C@@H](C)C(=O)N1CCC[C@H]1C(=O)N1CCC[C@H]1C(=O)N1CCC[C@H]1C(=O)N[C@@H](CO)C(N)=O [Example 147] |  |  |  | 0.0229 nM |  |  | 0.338 nM |  | > 9950 nM | 93.5% |  |  |  |  |  |  |  |
| CC[C@H](C)[C@H](NC(=O)[C@H](CCCN)NC(=O)[C@H](CC(=O)O)NC(=O)[C@H](CC(C)C)NC(=O)[C@](C)(CC(C)C)NC(=O)[C@@H](NC(=O)C(C)(C)NC(=O)[C@H](Cc1ccncc1)NC(=O)[C@H](CC(=O)O)NC(=O)[C@H](CO)NC(=O)[C@@H](NC(=O)[C@](C)(Cc1ccccc1F)NC(=O)[C@@H](NC(=O)CNC(=O)[C@H](CCC(=O)O)NC(=O)C(C)(C)NC(=O)[C@@H](N)Cc1ccc(O)cc1)[C@@H](C)O)[C@@H](C)O)[C@@H](C)CC)C(=O)N[C@@H](C)C(=O)N[C@@H](CCC(N)=O)C(=O)NC(C)(C)C(=O)N[C@@H](CCC(=O)O)C(=O)N[C@@H](Cc1ccccc1)C(=O)N[C@H](C(=O)N[C@@H](CCCCNC(=O)COCCOCCNC(=O)CC[C@H](NC(=O)CCCCCCCCCCCCC(=O)O)C(=O)O)C(=O)N[C@@](C)(Cc1ccc(O)cc1)C(=O)N[C@@H](CC(C)C)C(=O)N[C@H](C(=O)N[C@@H](CCCCNC(=O)COCCOCCNC(=O)CC[C@H](NC(=O)CCCCCCCCCCCCC(=O)O)C(=O)O)C(=O)NCC(=O)NCC(=O)N1CCC[C@H]1C(=O)N[C@@H](CO)C(=O)N[C@@H](CO)C(=O)NCC(=O)N[C@@H](C)C(=O)N1CCC[C@H]1C(=O)N1CCC[C@H]1C(=O)N1CCC[C@H]1C(=O)N[C@@H](CO)C(N)=O)[C@@H](C)CC)[C@@H](C)CC [Example 339] |  |  |  |  |  |  |  |  |  |  | 87.3% | 0.019 nM | 115% | 113% | 0.308 nM | > 10100 nM | > 10100 nM |
| CCCCCCCCCCCC(=O)N[C@@H](CCC(=O)NCCOCCOCC(=O)NCCOCCOCC(=O)NCCCC[C@H](NC(=O)[C@H](CCCN)NC(=O)[C@H](CC(=O)O)NC(=O)[C@H](CC(C)C)NC(=O)[C@](C)(CC(C)C)NC(=O)[C@@H](NC(=O)C(C)(C)NC(=O)[C@H](Cc1ccc(O)cc1)NC(=O)[C@H](CC(=O)O)NC(=O)[C@H](CO)NC(=O)[C@@H](NC(=O)[C@](C)(Cc1ccccc1F)NC(=O)[C@@H](NC(=O)CNC(=O)[C@H](CCC(=O)O)NC(=O)C(C)(C)NC(=O)[C@@H](N)Cc1ccc(O)cc1)[C@@H](C)O)[C@@H](C)O)[C@@H](C)CC)C(=O)N[C@@H](C)C(=O)N[C@@H](CCC(N)=O)C(=O)NC(C)(C)C(=O)N[C@@H](CCCCNC(=O)COCCOCCNC(=O)COCCOCCNC(=O)CC[C@H](NC(=O)CCCCCCCCCCC)C(=O)O)C(=O)N[C@@H](Cc1ccccc1)C(=O)N[C@H](C(=O)N[C@H](CCC(=O)O)C(=O)N[C@@](C)(Cc1ccc(O)cc1)C(=O)N[C@@H](CC(C)C)C(=O)N[C@H](C(=O)N[C@@H](CCC(=O)O)C(=O)NCC(=O)NCC(=O)N1CCC[C@H]1C(=O)N[C@@H](CO)C(=O)N[C@@H](CO)C(=O)NCC(=O)N[C@@H](C)C(=O)N1CCC[C@H]1C(=O)N1CCC[C@H]1C(=O)N1CCC[C@H]1C(=O)N[C@@H](CO)C(N)=O)[C@@H](C)CC)[C@@H](C)CC)C(=O)O [Example 300] | 1.25 nM | 91.5% |  |  |  | 109% |  | > 9950 nM |  |  |  | 0.0128 nM |  |  | 0.194 nM | > 9950 nM |  |
